# Measured values as given in patent US11827917B1, “Methods for the conversion of fermentable sugars to ethanol” (Colorado State University Research Foundation, priority 2020, dated 2023).
# Marks after values point to notes of the source that are not given here.
# Tests used:
# S. cerevisiae JAY 270 = assay: Serum-bottle cultivation in YPD: biomass, glycerol, ethanol yields; type: cell-based, Saccharomyces cerevisiae
# Method in brief: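 JAY 270 grown 24 h at 30° C., 200 rpm in sealed serum bottles of YPD from OD600 0.2, with TyrOH, PheOH and TrpOH at 0.05% and 0.2%; DMSO-matched controls for TrpOH and TyrOH. Biomass by OD600 and oven-dried cell mass; glucose, ethanol and glycerol by HPLC-RI; three biological replicates.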
# S. kudriavzezii JAY 1503 = assay: Serum-bottle cultivation in YPD, different yeast strains; type: cell-based; conditions: 0.2%
# Method: (§1) Analytical methods: Cell growth was evaluated by monitoring OD600 and cell dry mass concentration. For dry mass measurements, 1.0 mL of culture was transferred to a pre-dried and pre-weighed 2-mL centrifuge tube. The tubes were centrifuged for 10 min at 14000 rpm using a microcentrifuge, and then the cell pellets were dried in an oven for 3 days at 65° C. The cell dry mass was determined by subtracting the initial tube mass from the dried mass of tube with cells. The concentrations of glucose, ethanol, and glycerol were measured via HPLC (Shimadzu LC20A series) outfitted with a refractive index detector and using an Aminex HPX-87H (300×7.8 mm) organic acid column and Cation H+ guard cartridge (Bio Rad Laboratories, Hercules, CA). The column was maintained at 65° C. and the mobile phase was 5 mM sulfuric acid with a flow rate of 0.6 mL/min. Standard compound solutions were used to calibrate the HPLC. Each sample was analyzed three times by HPLC.
# (§2) Procedure: Seven yeast strains (S. cerevisiae ATCC 26603, S. cerevisiae JAY 238, S. cerevisiae JAY 240, S. cerevisiae JAY 241, S. paradoxus JAY 1502, S. kudriavzezii JAY 1503, and S. mikatae JAY 1504) were pre-cultured in 30 mL of YPD medium in 100 mL serum bottle overnight in a shaker at 30° C. and 200 rpm. The precultured yeast cells of each strains were collected and washed twice. Finally, the cell pellet was resuspended in about 10 mL 0.8% (w/v) NaCl and the OD600 measured. TyrOH, PheOH, and TrpOH were added to 30 mL of YPD medium in 100-mL serum bottles at 0.2% (w/v) respectively. The same amount of DMSO was added in YPD medium and served as control to the TrpOH and TyrOH treatments. The prepared yeast cells were added to obtain the initial cell concentration at OD600=0.2. The serum bottles were sealed and cultured in a shaker at 30° C. and 200 rpm for 24 h. There were three biological replicates for each treatment.
# S. paradoxus JAY 1502 = assay: as above; type: cell-based; conditions: 0.2%
# Method: as §1, §2
# S. mikatae JAY 1504 = assay: as above; type: cell-based; conditions: 0.2%
# Method: as §1, §2
# S. cerevisiae JAY 238 = assay: as above; type: cell-based, Saccharomyces cerevisiae; conditions: 0.2%
# Method: as §1, §2
# [1] = 0.05% (w/v), YPD, serum bottles
# [2] = S. kudriavzezii JAY 1503, YPD (Table 9B)
# [3] = S. paradoxus JAY 1502, YPD (Table 9B)
# [4] = S. mikatae JAY 1504, YPD (Table 9B)
# [5] = S. cerevisiae JAY 238, YPD (Table 9B)
smiles,measurement,setting,value
"OCCc1ccc(O)cc1 [TyrOH, Tyrosol]",Biomass Yield,S. cerevisiae JAY 270; [1],0.095 + 0.001 g/g
same,Biomass yield % change vs. control,S. cerevisiae JAY 270; [1],−5%
same,EtOH yield,S. cerevisiae JAY 270; [1],0.38 ± 0.01 g/g
same,EtOH yield % change vs. control,S. cerevisiae JAY 270; [1],0.8%
same,Glycerol yield,S. cerevisiae JAY 270; [1],0.031 ± 0.001 g/g
same,Glycerol yield % change vs. control,S. cerevisiae JAY 270; [1],−9%
same,Biomass yield vs. reference,"S. cerevisiae JAY 270; 0.05%, YPD, serum bottles",−5.0%
same,Ethanol yield,"S. cerevisiae JAY 270; 0.05%, YPD, serum bottles",0.38 ± 0.01 g/g
same,Ethanol yield vs. reference,"S. cerevisiae JAY 270; 0.05%, YPD, serum bottles",0.8%
same,Glycerol yield,"S. cerevisiae JAY 270; 0.05%, YPD, serum bottles",0.031 ± 0.001 g/g
same,Glycerol yield vs. reference,"S. cerevisiae JAY 270; 0.05%, YPD, serum bottles",−9.0%
same,OD600,"S. cerevisiae JAY 270; 0.05%, YPD, serum bottles",3.66
same,Effect on yeast cell growth,S. cerevisiae JAY 270; 0.2%,reduced yeast cell growth
same,Biomass Yield,"S. cerevisiae JAY 270; 0.2% (w/v), YPD, serum bottles",0.085 + 0.003 g/g
same,Biomass yield % change vs. control,"S. cerevisiae JAY 270; 0.2% (w/v), YPD, serum bottles",−15* %
same,EtOH yield,"S. cerevisiae JAY 270; 0.2% (w/v), YPD, serum bottles",0.40 ± 0.00 g/g
same,EtOH yield % change vs. control,"S. cerevisiae JAY 270; 0.2% (w/v), YPD, serum bottles",6.9* %
same,Glycerol yield,"S. cerevisiae JAY 270; 0.2% (w/v), YPD, serum bottles",0.027 ± 0.000 g/g
same,Glycerol yield % change vs. control,"S. cerevisiae JAY 270; 0.2% (w/v), YPD, serum bottles",−20* %
same,Biomass yield vs. reference,"S. cerevisiae JAY 270; 0.2%, YPD, serum bottles",−15.3%
same,Effect on ethanol yield,"S. cerevisiae JAY 270; 0.2%, YPD, serum bottles",increased the ethanol yield significantly
same,Ethanol yield,"S. cerevisiae JAY 270; 0.2%, YPD, serum bottles",0.40 ± 0.00 g/g
same,Ethanol yield vs. reference,"S. cerevisiae JAY 270; 0.2%, YPD, serum bottles",6.9%
same,Glycerol yield,"S. cerevisiae JAY 270; 0.2%, YPD, serum bottles",0.027 ± 0.000 g/g
same,Glycerol yield vs. reference,"S. cerevisiae JAY 270; 0.2%, YPD, serum bottles",−19.9%
same,OD600,"S. cerevisiae JAY 270; 0.2%, YPD, serum bottles",3.27
same,Biomass Yield,S. kudriavzezii JAY 1503; S. kudriavzezii JAY 1503,0.029 ± 0.000 g/g
same,Biomass yield % change vs. control,S. kudriavzezii JAY 1503; S. kudriavzezii JAY 1503,−35* %
same,EtOH yield,S. kudriavzezii JAY 1503; S. kudriavzezii JAY 1503,0.388 ± 0.000 g/g
same,EtOH yield % change vs. control,S. kudriavzezii JAY 1503; S. kudriavzezii JAY 1503,+7.8* %
same,Glycerol yield,S. kudriavzezii JAY 1503; S. kudriavzezii JAY 1503,0.056 ± 0.001 g/g
same,Glycerol yield % change vs. control,S. kudriavzezii JAY 1503; S. kudriavzezii JAY 1503,+8.1%
same,DCW,"S. kudriavzezii JAY 1503; S. kudriavzezii JAY 1503, YPD",2.10 mg
same,DCW Δ vs. ref,"S. kudriavzezii JAY 1503; S. kudriavzezii JAY 1503, YPD",82.4%
same,OD600,"S. kudriavzezii JAY 1503; S. kudriavzezii JAY 1503, YPD",0.82
same,OD600 Δ vs. ref,"S. kudriavzezii JAY 1503; S. kudriavzezii JAY 1503, YPD",52.4%
same,Biomass Yield,S. kudriavzezii JAY 1503; [2],0.029 + 0.000 g/g
same,Biomass yield Δ vs. ref,S. kudriavzezii JAY 1503; [2],−35.1%
same,Ethanol yield,S. kudriavzezii JAY 1503; [2],0.388 ± 0.000 g/g
same,Ethanol yield Δ vs. ref,S. kudriavzezii JAY 1503; [2],7.8%
same,Glycerol yield,S. kudriavzezii JAY 1503; [2],0.056 ± 0.001 g/g
same,Glycerol yield Δ vs. ref,S. kudriavzezii JAY 1503; [2],8.07%
same,Biomass Yield,S. paradoxus JAY 1502; S. paradoxus JAY 1502,0.055 ± 0.000 g/g
same,Biomass yield % change vs. control,S. paradoxus JAY 1502; S. paradoxus JAY 1502,−15* %
same,EtOH yield,S. paradoxus JAY 1502; S. paradoxus JAY 1502,0.410 ± 0.014 g/g
same,Glycerol yield,S. paradoxus JAY 1502; S. paradoxus JAY 1502,0.041 ± 0.001 g/g
same,Glycerol yield % change vs. control,S. paradoxus JAY 1502; S. paradoxus JAY 1502,−9.9%
same,DCW,"S. paradoxus JAY 1502; S. paradoxus JAY 1502, YPD",2.15 mg
same,DCW Δ vs. ref,"S. paradoxus JAY 1502; S. paradoxus JAY 1502, YPD",81.1%
same,OD600,"S. paradoxus JAY 1502; S. paradoxus JAY 1502, YPD",1.90
same,OD600 Δ vs. ref,"S. paradoxus JAY 1502; S. paradoxus JAY 1502, YPD",85.5%
same,Biomass Yield,S. paradoxus JAY 1502; [3],0.055 + 0.000 g/g
same,Biomass yield Δ vs. ref,S. paradoxus JAY 1502; [3],−15.4%
same,Ethanol yield,S. paradoxus JAY 1502; [3],0.410 ± 0.014 g/g
same,Ethanol yield Δ vs. ref,S. paradoxus JAY 1502; [3],5.4%
same,Glycerol yield,S. paradoxus JAY 1502; [3],0.041 ± 0.001 g/g
same,Glycerol yield Δ vs. ref,S. paradoxus JAY 1502; [3],−9.89%
same,Biomass Yield,S. mikatae JAY 1504; S. mikatae JAY 1504,0.052 ± 0.000 g/g
same,Biomass yield % change vs. control,S. mikatae JAY 1504; S. mikatae JAY 1504,−20* %
same,EtOH yield,S. mikatae JAY 1504; S. mikatae JAY 1504,0.359 ± 0.042 g/g
same,EtOH yield % change vs. control,S. mikatae JAY 1504; S. mikatae JAY 1504,+6.7* %
same,Glycerol yield,S. mikatae JAY 1504; S. mikatae JAY 1504,0.036 ± 0.001 g/g
same,Glycerol yield % change vs. control,S. mikatae JAY 1504; S. mikatae JAY 1504,−24* %
same,DCW,"S. mikatae JAY 1504; S. mikatae JAY 1504, YPD",2.65 mg
same,DCW Δ vs. ref,"S. mikatae JAY 1504; S. mikatae JAY 1504, YPD",79.1%
same,OD600,"S. mikatae JAY 1504; S. mikatae JAY 1504, YPD",1.75
same,OD600 Δ vs. ref,"S. mikatae JAY 1504; S. mikatae JAY 1504, YPD",77.3%
same,Biomass Yield,S. mikatae JAY 1504; [4],0.052 + 0.000 g/g
same,Biomass yield Δ vs. ref,S. mikatae JAY 1504; [4],−20.1%
same,Ethanol yield,S. mikatae JAY 1504; [4],0.359 ± 0.042 g/g
same,Ethanol yield Δ vs. ref,S. mikatae JAY 1504; [4],6.7%
same,Glycerol yield,S. mikatae JAY 1504; [4],0.036 ± 0.001 g/g
same,Glycerol yield Δ vs. ref,S. mikatae JAY 1504; [4],−23.65%
same,Biomass Yield,S. cerevisiae JAY 238; S. cerevisiae JAY 238,0.058 ± 0.001 g/g
same,Biomass yield % change vs. control,S. cerevisiae JAY 238; S. cerevisiae JAY 238,−14* %
same,EtOH yield,S. cerevisiae JAY 238; S. cerevisiae JAY 238,0.455 ± 0.016 g/g
same,EtOH yield % change vs. control,S. cerevisiae JAY 238; S. cerevisiae JAY 238,+8.3* %
same,Glycerol yield,S. cerevisiae JAY 238; S. cerevisiae JAY 238,0.036 ± 0.002 g/g
same,Glycerol yield % change vs. control,S. cerevisiae JAY 238; S. cerevisiae JAY 238,−8.3%
same,DCW,"S. cerevisiae JAY 238; S. cerevisiae JAY 238, YPD",2.35 mg
same,DCW Δ vs. ref,"S. cerevisiae JAY 238; S. cerevisiae JAY 238, YPD",83.9%
same,OD600,"S. cerevisiae JAY 238; S. cerevisiae JAY 238, YPD",1.99
same,OD600 Δ vs. ref,"S. cerevisiae JAY 238; S. cerevisiae JAY 238, YPD",85.0%
same,Biomass Yield,S. cerevisiae JAY 238; [5],0.058 + 0.001 g/g
same,Biomass yield Δ vs. ref,S. cerevisiae JAY 238; [5],−13.9%
same,Ethanol yield,S. cerevisiae JAY 238; [5],0.455 ± 0.016 g/g
same,Ethanol yield Δ vs. ref,S. cerevisiae JAY 238; [5],8.3%
same,Glycerol yield,S. cerevisiae JAY 238; [5],0.036 ± 0.002 g/g
same,Glycerol yield Δ vs. ref,S. cerevisiae JAY 238; [5],−8.30%
